{
  "source": "patent US7399860B2",
  "about": "“Manufacture of polyglutamate-therapeutic agent conjugates” (Cell Therapeutics Inc., priority 1999, dated 2008)",
  "origin": "cited, not measured here",
  "tested_on": "tumor",
  "conditions": "tumor-bearing hosts; U.S. Pat. No. 5,977,163; Li et al. 1998",
  "data": [
    {"substance": "polyglutamic acid-paclitaxel conjugate", "values": [
      {"measurement": "efficacy compared with the unconjugated form of the drug", "value": "increased efficacy"}
    ]}
  ]
}
